The text below walks through data of patent US20030083292A1, “Inhibitors of DNA methyltransferase isoforms” (priority 2001, published 2003).

The subject of one series is DNMT3b mRNA. The experiment in a line: Northern blot of DNMT3b mRNA expression after antisense treatment. Type of series: cell-based, human. Conditions: A549 cells. How it is done:
(§1) To identify antisense oligodeoxynucleotide (ODN) capable of inhibiting DNMT3a or DNMT3b expression in human cancer cells, antisense oligonucleotides were initially screened in T24 (human blader) A549 (human non small cell lung cancers cells at 100 nM. Cells were harvested after 24 hours of treatment, and DNMT3a or DNMT3b RNA expression was analyzed by Northern blot analysis.
(§2) Active oligonucleotides identified in initial screens were then synthesized with phosporothiate backbone modification and 2′-O-methyl modifications of the sugar on the four 5′ and 3′ nucleotides. […] Human A549 or T24 cells were treated with increasing doses of antisense (AS) oligonucleotide from 0-75 nM for 24 hours.
(§3) Briefly, human A549 or T24 human bladder carcinoma cells were seeded in 10 cm tissue culture dishes one day prior to oligonucleotide treatment. The cell lines were obtained from the American Type Culture Collection (ATCC) (Manassas, Va.) and were grown under the recommended culture conditions. Before the addition of the oligonucleotides, cells were washed with PBS (phosphate buffered saline). Next, lipofectin transfection reagent (GIBCO BRL Mississauga, Ontario, Calif.), at a concentration of 6.25 μg/ml, was added to serum free OPTIMEM medium (GIBCO BRL, Rockville, Md.), which was then added to the cells. The oligonucleotides to be screened were then added directly to the cells (i.e., one oligonucleotide per plate of cells).
Cells were harvested, and total RNAs were analyzed by Northern blot analysis. Briefly, total RNA was extracted using RNeasy miniprep columns (QIAGEN). Ten to twenty μg of total RNA was run on a formaldehyde-containing 1% agarose gel with 0.5 M sodium phosphate (pH 7.0) as the buffer system. RNAs were then transferred to nitrocellulose membranes and hybridized with the radiolabelled DNA probes specific for DNMT3a or DNMT3b messenger RNA. Autoradiography was performed using conventional procedures.

The next series relates to DNMT1 mRNA. Description: Northern blot, non target mRNA DNMT1. Type of series: cell-based, human. The conditions noted are these: A549 cells.
For a further series, the system named is DNMT3a mRNA. Description: Northern blot of DNMT3a mRNA expression after antisense treatment. Format: cell-based, human. The conditions noted are these: A549 cells. How it is done: as §1, §2
as §3, with “The oligonucleotides to be screened were then added directly to the cells (i.e., one oligonucleotide per plate of cells).” left out
Cells were harvested, and total RNAs were analyzed by Northern blot analysis. […]

Series [1] has as its system Glyceraldehyde 3′-phosphate dehydrogenase mRNA. Description: Northern blot, non target mRNA Glyceraldehyde 3′-phosphate dehydrogenase. Type of series: cell-based, human. Conditions: A549 cells. The protocol:
as §2, §3
Cells were harvested, and total RNAs were analyzed by Northern blot analysis. Briefly, total RNA was extracted using RNeasy miniprep columns (QIAGEN). Ten to twenty μg of total RNA was run on a formaldehyde-containing 1% agarose gel with 0.5 M sodium phosphate (pH 7.0) as the buffer system. […]

In another series the test system is DNMT3b protein. Description: Western blot of DNMT3b protein level. Format: cell-based, human. The conditions noted are these: 0-75 nM, 48 hrs. How it is done: In order to determine whether treatment with DNMT3a or DNMT3b AS-ODNs would inhibit expression at the protein level, antibodies specific for either DNMT3a or DNMT3b were produced for use in western blots. DNMT3b is expressed at sufficiently high levels in human cancer cells to be detected by our DNMT3b antibody. However, DNMT3a is not expressed at detectable levels. Therefore, both human A549 non small cell lung cancer cells and T24 human bladder cancer cells were treated with doses of the DNMT3b antisense inhibitor (SEQ ID NO: 18) ranging from 0-75 nM for 48 hours and then measured DNMT3b protein levels by Western blot.
Briefly, cells were lysed in buffer containing 1% Triton X-100, 0.5% sodium deoxycholate, 5 mM EDTA, 25 mM Tris-HC1, pH 7.5, plus protease inhibitors. Total protein was quantified by the protein assay reagent from Bio-Rad (Hercules, Calif.). 100 ug of total protein was analyzed by SDS-PAGE. Next, total protein was transferred onto a PVDF membrane and probed with DNMT3b specific antibody. Anti-DNMT3b antibody was raised by immunizing rabbits with a GST fusion protein containing a fragment of the DNMT3b protein (amino acids 4-101 of GenBank Accession No. NM_006892). Rabbit antiserum was tested and found only to react specifically to the human DNMT3b isoform. DNMT3b antiserum was used at 1:500 dilution in Western blots to detect DNA MeTase-6 in total cell lysates. Horse Radish Peroxidase conjugated secondary antibody was used at a dilution of 1:5000 to detect primary antibody binding. The secondary antibody binding was visualized by use of the Enhanced chemiluminescence (ECL) detection kit (Amersham-Pharmacia Biotech., Inc., Piscataway, N.J.).
Background: A western blot detects proteins with antibodies after separation by electrophoresis.

Series [2] concerns A549 human non small cell lung cancer cells. Description: Apoptosis, Cell Death Detection ELISA Plus, A549 cells. Format: cell-based. The protocol: (§4) In order to determine the effects of DNMT3a and DNMT3b inhibition on apoptosis of cancer cells, various cancer cell lines (A549 or T24 cells, MDAmb231) were exposed to the DNMT3a and DNMT3b AS-ODN for various periods of time and the effects on apoptosis were determined. For the analysis of apoptosis (active cell death), cells were analyzed using the Cell Death Detection ELISA ^Plus kit (Roche Diagnostic GmBH, Mannheim, Germany) according to the manufacturer's directions. Typically, 10,000 cells were plated in 96-well tissue culture dishes for 2 hours before harvest and lysis. Each sample was analyzed in duplicate. ELISA reading was done using a MR700 plate reader (DYNEX Technology, Ashford, Middlesex, England) at 410 nm. The reference was set at 490 nm.
In general terms: An ELISA detects its analyte on a solid surface through an enzyme-linked reagent.

The subject of series [3] is HMEC (human mammary epithelial cells). The experiment in a line: Apoptosis in normal cells, HMEC. Type of series: cell-based. Conditions: 75 nM, 48 hrs. The protocol:
as §4
(§5) The effect of DNMT3b inhibition on the induction of apoptosis in normal cells was also determined, the results of which are presented in FIG. 10. HMEC (human mammary epithelial cells, ATCC, Manassas, Va.) and MRHF (foreskin fibroblasts, ATCC, Manassas, Va.) were treated with 75 nM of DNMT3b AS (SEQ ID NO: 18) or its mismatch control SEQ ID NO: 19 for 48 hrs as previously described for human cancer cells.

In series [4] the test system is MRHF (foreskin fibroblasts). The experiment in a line: Apoptosis in normal cells, MRHF. The conditions noted are these: 75 nM, 48 hrs. Format: cell-based, human. The protocol:
as §4, §5

Regarding “SEQ ID NO: 33: DNMT3A AS, 3′UTR (4045), PTI, 5′cgtgagaacgcgccatctgc3′ (antisense CGTGAGAACGCGCCATCTGC; DNA, all phosphorothioate, methylation of C not given here)”, the “expression of DNMT3b mRNA” value in the series with DNMT3b mRNA was “not effected”. The “expression of non target mRNA DNMT1” value in the series on DNMT1 mRNA was “not effected”. The “expression of DNMT3a mRNA” value in the series with DNMT3a mRNA was “dose dependent effect”. In addition, the “expression of non target mRNA Glyceraldehyde 3′-phosphate dehydrogenase” value in series [1] was “not effected”.

As for “SEQ ID NO: 18: DNMT3B AS, 3′UTR (3993), PTI, 5′cgtcgtggctccagttacaa3′ (antisense CGTCGTGGCTCCAGTTACAA; DNA, all phosphorothioate, methylation of C not given here)”, the “expression of DNMT3b mRNA” value in the series with DNMT3b mRNA is “dose dependent inhibition”. In addition, the IC50 in the series with DNMT3b mRNA (0-75 nM, 24 hours, read-out: estimated IC50 value, inhibition of DNMT3b expression) is roughly 25 nM. For the same substance, the “expression of non target mRNA DNMT1” value with DNMT1 mRNA is recorded as “not effected”. In addition, the “expression of DNMT3a mRNA” value in the series with DNMT3a mRNA is reported as “not effected”. Besides, the “expression of non target mRNA Glyceraldehyde 3′-phosphate dehydrogenase” value in series [1] is “not effected”. For the same substance, the “level of DNMT3b protein” value with DNMT3b protein (A549 human non small cell lung cancer cells) is “dose dependent effect”; in the series with DNMT3b protein (A549 human non small cell lung cancer cells, listed as MG3741) it was “inhibits”; in the series on DNMT3b protein (T24 human bladder cancer cells), “dose dependent effect”; in the series with DNMT3b protein (T24 human bladder cancer cells, listed as MG3741), “inhibits”. In addition, the apoptosis entry in series [2] is “induced apotosis”; in series [3], “no apoptosis”; in series [4] it was “no apoptosis”.

As usually defined, the IC50 is the concentration that gives 50% inhibition.
